pIC50: −log10 of the molar value. Where a SMILES comes first, the peptide text is derived from it. Bridges are numbered along the chain shown (N, C = ends). [ ]: non-standard residue; d: D form. The star is where a group is joined. hPhe(3-Cl-4-CF3) = N[C@@H](CCc1ccc(C(F)(F)F)c(Cl)c1)C(=O)O; NPrPhe(4-CF3) = CCCN[C@@H](Cc1ccc(C(F)(F)F)cc1)C(=O)O; NMePhe(4-Me) = CN[C@@H](Cc1ccc(C)cc1)C(=O)O; NMeGly(cPent) = CN[C@H](C(=O)O)C1CCCC1; Pro(4,4-F2) = O=C(O)[C@@H]1CC(F)(F)CN1; Hyp = O=C(O)[C@@H]1C[C@@H](O)CN1; NMeD = CN[C@@H](CC(=O)O)C(=O)O; NMeL = CN[C@@H](CC(C)C)C(=O)O; Morpholide = C1CN(*)CCO1; NMeA = CN[C@@H](C)C(=O)O; Ac5c = NC1(C(=O)O)CCCC1; Aze = O=C(O)[C@@H]1CCN1; Ac4c = NC1(C(=O)O)CCC1; NEtG = CCNCC(=O)O; Sar = CNCC(=O)O
Tests used:
[1] = target: GDP-bound NRAS wild-type protein (Homo sapiens, UniProt P01111); assay: Binding to NRAS by surface plasmon resonance (SPR), KD and KD ratio to KRAS
Sequence of GDP-bound NRAS wild-type protein (P01111 whole entry): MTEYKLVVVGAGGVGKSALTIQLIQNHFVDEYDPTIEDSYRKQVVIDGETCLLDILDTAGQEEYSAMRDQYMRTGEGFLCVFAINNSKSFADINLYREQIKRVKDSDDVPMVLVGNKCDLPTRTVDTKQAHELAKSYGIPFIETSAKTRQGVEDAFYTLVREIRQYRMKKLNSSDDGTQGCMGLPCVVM
Summary of the method: (§1)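 GDP-loaded biotinylated Avi-tag RAS proteins (E. coli-expressed) captured on a Biotin CAPture chip at ~100–300 RU; single-cycle kinetics at 30°C, 100 µL/min, 75 s injections of rising compound concentrations. HBS pH 7.4 running buffer with 1 mM DTT, 10 mM MgCl2, 10 µM GDP, 4% DMSO. KD from 1:1 binding fit.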

HRAS wild-type protein = HRAS wild-type protein (Homo sapiens, UniProt P01112); assay: Binding to HRAS by surface plasmon resonance (SPR), KD and KD ratio to KRAS
Sequence of HRAS wild-type protein (P01112 whole entry): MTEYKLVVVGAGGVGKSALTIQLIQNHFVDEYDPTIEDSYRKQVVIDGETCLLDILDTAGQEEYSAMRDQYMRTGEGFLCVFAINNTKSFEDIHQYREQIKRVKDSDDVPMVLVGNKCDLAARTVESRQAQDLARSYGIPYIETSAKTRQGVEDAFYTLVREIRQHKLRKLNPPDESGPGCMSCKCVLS
Summary of the method: as §1

[2] = tested on: human lung cancer strain NCI-H441; format: cell-based
Summary of the method: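 Readout: […] after the ATP-based reagent. Compound: serial dilutions in dimethyl sulfoxide.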

[3] = ratio of the KD value with respect to GDP-bound NRAS wild-type protein to the KD value with respect to KRAS
[4] = ratio of the KD value with respect to HRAS wild-type protein to the KD value with respect to KRAS
[5] = ratio of KD for GDP-bound NRAS wild-type protein to KD for KRAS
[6] = ratio of KD for HRAS wild-type protein to KD for KRAS
[7] = ratio of KD value for GDP-bound NRAS wild-type protein to KD value for KRAS (SPR)
[8] = ratio of KD value for HRAS wild-type protein to KD value for KRAS (SPR)

Row | SMILES | pIC50 [2] | NRAS /KRAS [1, 3] | HRAS /KRAS (HRAS wild-type protein; [4]) | NRAS /KRAS [1, 5] | HRAS /KRAS (HRAS wild-type protein; [6]) | NRAS /KRAS [1, 7] | HRAS /KRAS (HRAS wild-type protein; [8])
1 | CCC[C@H]1C(=O)N[C@@H]([C@@H](C)CC)C(=O)N(C2CC2)CC(=O)N(C)[C@H]2C/C=C\CCN(C2=O)[C@@H](Cc2ccc(C)cc2)C(=O)N(C)CC(=O)N[C@@H](CCc2cc(F)c3c(c2)CCC3)C(=O)N2C[C@H](OCC)C[C@H]2C(=O)NC2(CC(C)(C)C2)C(=O)N(C)[C@@H](C2CCCC2)C(=O)N(C)[C@H](C(=O)N(C)C)CC(=O)N1C [PP2879] | 6.91 | – | – | A (a compound having 10 or more and less than 20 is denoted as A) | A (a compound having 10 or more and less than 20 is denoted as A) | – | –
2 | CCO[C@@H]1C[C@H]2C(=O)NC3(CCC3)C(=O)N(C)[C@@H](C3CCCC3)C(=O)N(C)[C@H](C(=O)N(C)C)CC(=O)N(C)[C@@H](CC3CCC3)C(=O)N[C@@H]([C@@H](C)CC)C(=O)N(C)CC(=O)N(C)[C@H]3CCCCCN(C3=O)[C@@H](Cc3ccc(C(F)(F)F)cc3)C(=O)N(C)CC(=O)N[C@@H](CCc3cc(F)c(C(F)(F)F)c(F)c3)C(=O)N2C1 [PP0668] | 7.64 | B (a compound having 3 or more and less than 10 is denoted as B) | B (a compound having 3 or more and less than 10 is denoted as B) | – | – | – | –
3 | CCO[C@@H]1C[C@H]2C(=O)NC3(CCC3)C(=O)N(C)[C@@H](C3CCCC3)C(=O)N(CC)[C@H](C(=O)N3CCOCC3)CC(=O)N(C)[C@@H](Cc3ccccc3)C(=O)N[C@@H]([C@@H](C)CC)C(=O)N(C)CC(=O)N(C)[C@H]3CCCCCN(C3=O)[C@@H](Cc3ccc(C(F)(F)F)cc3)C(=O)N(C)CC(=O)N[C@@H](CCc3cc(F)c(C(F)(F)F)c(F)c3)C(=O)N2C1 [PP0950] | 6.02 | – | – | A (a compound having 10 or more and less than 20 is denoted as A) | B (a compound having 3 or more and less than 10 is denoted as B) | – | –
4 | CC[C@H](C)[C@@H]1NC(=O)[C@H](CC(C)C)N(C)C(=O)C[C@@H](C(=O)N2CCOCC2)N(C)C(=O)[C@H](C2CCCC2)N(C)C(=O)C2(CCCC2)NC(=O)[C@@H]2CCCN2C(=O)[C@H](CCc2ccc(C(F)(F)F)c(Cl)c2)NC(=O)CN(CC)C(=O)[C@H](Cc2ccc(C)cc2)N(C)C(=O)CN(CC)C(=O)CN(C)C1=O [PP0029] ([NMeL]I[Sar][NEtG][NMePhe(4-Me)][NEtG][hPhe(3-Cl-4-CF3)]P[Ac5c][NMeGly(cPent)][NMeD]-Morpholide; lactam N-11) | 7.58 | – | – | C (A compound having a KD ratio of 0.1 or more and less than 3 is denoted as C) | C (A compound having a KD ratio of 0.1 or more and less than 3 is denoted as C) | – | –
5 | CCC[C@H]1C(=O)N[C@@H]([C@@H](C)CC)C(=O)N(C)CC(=O)N(C)[C@H]2C/C=C\CCN(C2=O)[C@@H](Cc2ccc(C(F)(F)F)cc2)C(=O)N(C)CC(=O)N[C@@H](CCc2ccc(Cl)c(Cl)c2)C(=O)N2C[C@H](OCC)C[C@H]2C(=O)NC2(CC(C)(C)C2)C(=O)N(C)[C@@H](CC2CC2)C(=O)N(C)[C@H](C(=O)N(C)C)CC(=O)N1C [PP2811] | 7.00 | – | – | A (a compound having 10 or more and less than 20 is denoted as A) | A (a compound having 10 or more and less than 20 is denoted as A) | – | –
6 | CCCN1C(=O)[C@@H]2CCN2C(=O)[C@H](C)N(C)C(=O)[C@H]([C@@H](C)CC)NC(=O)[C@H](CC(C)C)N(C)C(=O)C[C@@H](C(=O)N2CCOCC2)NC(=O)[C@H](C2CCCC2)N(C)C(=O)C2(CCC2)NC(=O)[C@@H]2CC(F)(F)CN2C(=O)[C@H](CCc2ccc(C(F)(F)F)c(Cl)c2)NC(=O)CN(C)C(=O)[C@@H]1Cc1ccc(C(F)(F)F)cc1 [PP0346] ([NMeL]I[NMeA][Aze][NPrPhe(4-CF3)][Sar][hPhe(3-Cl-4-CF3)][Pro(4,4-F2)][Ac4c][NMeGly(cPent)]D-Morpholide; lactam N-11) | 7.16 | – | – | C (A compound having a KD ratio of 0.1 or more and less than 3 is denoted as C) | B (a compound having 3 or more and less than 10 is denoted as B) | – | –

Now those with a higher pIC50 [2], led by results:

Row | pIC50 [2] | SMILES | NRAS /KRAS [1, 3] | HRAS /KRAS (HRAS wild-type protein; [4]) | NRAS /KRAS [1, 5] | HRAS /KRAS (HRAS wild-type protein; [6]) | NRAS /KRAS [1, 7] | HRAS /KRAS (HRAS wild-type protein; [8])
7 | 8.27 | CC[C@H](C)[C@@H]1NC(=O)[C@H](CC(C)C)N(C)C(=O)C[C@@H](C(=O)N2CCCC2)N(C)C(=O)[C@H](C2CCCC2)N(C)C(=O)C2(CCCC2)NC(=O)[C@@H]2CCCN2C(=O)[C@H](CCc2cc(F)c(C(F)(F)F)c(F)c2)NC(=O)CN(C)C(=O)[C@H](Cc2ccc(C(F)(F)F)cc2)N2CCCC[C@@H](C2=O)N(C)C(=O)CN(C)C1=O [PP0571] | B (a compound having 3 or more and less than 10 is denoted as B) | B (a compound having 3 or more and less than 10 is denoted as B) | – | – | – | –
8 | 8.12 | CCCN1C(=O)[C@@H]2CCN2C(=O)CN(C)C(=O)[C@H]([C@@H](C)CC)NC(=O)[C@H](CC(C)C)N(C)C(=O)C[C@@H](C(=O)N(C)C)NC(=O)[C@H](C2CCCC2)N(C)C(=O)C2(CCC2)NC(=O)[C@@H]2C[C@@H](OCC)CN2C(=O)[C@H](CCc2ccc(C(F)(F)F)c(Cl)c2)NC(=O)CN(C)C(=O)[C@@H]1Cc1ccc(C(F)(F)F)cc1 [PP0390] ([NMeL]I[Sar][Aze][NPrPhe(4-CF3)][Sar][hPhe(3-Cl-4-CF3)][Hyp](Et)[Ac4c][NMeGly(cPent)]D-NMe2; lactam N-11) | C (A compound having a KD ratio of 0.1 or more and less than 3 is denoted as C) | B (a compound having 3 or more and less than 10 is denoted as B) | – | – | – | –
9 | 8.22 | CCC[C@H]1C(=O)N[C@@H]([C@@H](C)CC)C(=O)N(C)CC(=O)N(C)[C@H]2C/C=C\CCN(C2=O)[C@@H](Cc2ccc(C(F)(F)F)cc2)C(=O)N(C)CC(=O)N[C@@H](CCc2cc(F)c(Cl)c(F)c2)C(=O)N2C[C@H](OCC)C[C@H]2C(=O)NC2(CC(C)(C)C2)C(=O)N(C)[C@@H](C2CCCC2)C(=O)N(C)[C@H](C(=O)N(C)C)CC(=O)N1C [PP1758] | – | – | – | – | AA (a compound having 20 or more is denoted as AA) | A (a compound having 10 or more and less than 20 is denoted as A)
10 | 7.96 | CCCN1C(=O)[C@@H]2CCN2C(=O)[C@H](C)N(C)C(=O)[C@H]([C@@H](C)CC)NC(=O)[C@H](CC(C)C)N(C)C(=O)C[C@@H](C(=O)N2CCOCC2)NC(=O)[C@H](C2CCCC2)N(C)C(=O)C2(CCCC2)NC(=O)[C@@H]2C[C@@H](OCC)CN2C(=O)[C@H](CCc2ccc(C(F)(F)F)c(Cl)c2)NC(=O)CN(C)C(=O)[C@@H]1Cc1ccc(C(F)(F)F)cc1 [PP0347] ([NMeL]I[NMeA][Aze][NPrPhe(4-CF3)][Sar][hPhe(3-Cl-4-CF3)][Hyp](Et)[Ac5c][NMeGly(cPent)]D-Morpholide; lactam N-11) | – | – | C (A compound having a KD ratio of 0.1 or more and less than 3 is denoted as C) | B (a compound having 3 or more and less than 10 is denoted as B) | – | –
11 | 7.99 | CCCN(C)C(=O)[C@@H]1CC(=O)N(C)[C@@H](C2CCC2)C(=O)N[C@@H]([C@@H](C)CC)C(=O)N(C)CC(=O)N(C)[C@H]2C/C=C\CCN(C2=O)[C@@H](Cc2ccc(C(F)(F)F)cc2)C(=O)N(C)CC(=O)N[C@@H](CCc2cc(F)c(C(F)(F)F)c(F)c2)C(=O)N2C[C@@H](C)C[C@H]2C(=O)NC2(CCC2)C(=O)N(C)[C@@H](C2CCCC2)C(=O)N1C [PP2083] | A (a compound having 10 or more and less than 20 is denoted as A) | B (a compound having 3 or more and less than 10 is denoted as B) | – | – | – | –
12 | 8.01 | CCO[C@@H]1C[C@H]2C(=O)NC3(CC(C)(C)C3)C(=O)N(C)[C@@H](C(CC)CC)C(=O)N(C)[C@H](C(=O)N(C)C)CC(=O)N(C)[C@@H](CC)C(=O)N[C@@H]([C@@H](C)CC)C(=O)N(C)CC(=O)N(C)[C@H]3C/C=C\CCN(C3=O)[C@@H](Cc3ccc(C)cc3)C(=O)N(C)CC(=O)N[C@@H](CCc3cc(F)c(C(F)(F)F)c(F)c3)C(=O)N2C1 [PP2147] | A (a compound having 10 or more and less than 20 is denoted as A) | B (a compound having 3 or more and less than 10 is denoted as B) | – | – | – | –
13 | 7.86 | CCO[C@@H]1C[C@H]2C(=O)NC3(CCC3)C(=O)N(C)[C@@H](C3CCCC3)C(=O)N(C)[C@H](C(=O)N(C)C)CC(=O)N(C)[C@@H](CC3CCCC3)C(=O)N[C@@H]([C@@H](C)CC)C(=O)N(C)CC(=O)N(C)[C@H]3C/C=C\CCN(C3=O)[C@@H](Cc3ccc(F)cc3)C(=O)N(C)CC(=O)N[C@@H](CCc3cc(F)c(C(F)(F)F)c(F)c3)C(=O)N2C1 [PP1531] | – | – | – | – | A (a compound having 10 or more and less than 20 is denoted as A) | B (a compound having 3 or more and less than 10 is denoted as B)
14 | 8.30 | CCC[C@H]1C(=O)N[C@@H]([C@@H](C)CC)C(=O)N(C)CC(=O)N(C)[C@H]2C/C=C\CCN(C2=O)[C@@H](Cc2ccc(C(F)(F)F)cc2)C(=O)N(C)CC(=O)N[C@@H](CCc2cc(F)c(C(F)(F)F)c(F)c2)C(=O)N2CC(F)(F)C[C@H]2C(=O)NC2(CC(C)(C)C2)C(=O)N(C)[C@@H](C2CCCC2)C(=O)N(C)[C@H](C(=O)N(C)C)CC(=O)N1C [PP1711] | – | – | – | – | A (a compound having 10 or more and less than 20 is denoted as A) | B (a compound having 3 or more and less than 10 is denoted as B)
15 | 8.31 | CCO[C@@H]1C[C@H]2C(=O)NC3(CCC3)C(=O)N(C)[C@@H](C3CCCC3)C(=O)N(C)[C@H](C(=O)N(C)C)CC(=O)N(C)[C@@H](C)C(=O)N[C@@H]([C@@H](C)CC)C(=O)N(C)CC(=O)N(C)[C@H]3CCCCCN(C3=O)[C@@H](Cc3ccc(C(F)(F)F)cc3)C(=O)N(C)CC(=O)N[C@@H](CCc3cc(F)c(C(F)(F)F)c(F)c3)C(=O)N2C1 [PP0476] | B (a compound having 3 or more and less than 10 is denoted as B) | B (a compound having 3 or more and less than 10 is denoted as B) | – | – | – | –
